Patent publication US20050261290A1, “Novel compounds of proline and morpholine derivatives” (priority 2004, published 2005)

Legend:
human 11b-hsd-1 = human 11b-hsd-1 (Homo sapiens, UniProt P28845); assay: Inhibition constant Ki of human 11b-hsd-1 (3H-cortisone to 3H-cortisol conversion, HPLC); type: biochemical; settings: for inhibition at 0.1 µM: 0.1 μM compound; for Ki: apparent Ki, read-out: Ki app
Experimental: In each well, varying amounts of compounds are incubated with a fixed amount of 11b-hsd-1 (4 nM) and NADPH (500 μM) for 30 to 40 min at room temperature in the assay buffer. The enzyme concentration was determined by titration using reversible tight-binding inhibitors. […] The area of 3H-cortisol is calculated and plotted versus time to determine a linear velocity. […] Where vi, and vo are the rates of cortisol formation in the presence and in the absence of inhibitor, respectively, I is the inhibitor concentration and E is the 11 b-hsd-1 concentration in the assay buffer. […] NADPH, Glucose-6-Phosphate (G6P), and Glucose-6-Phosphate dehydrogenase was purchased from Sigma.

bone nodule formation = settings: cited from earlier work
healthy human volunteers = healthy human volunteers treated with carbenoxolone; cited from earlier work
normal subjects = settings: ingestion; cited from earlier work

human 11b-hsd-1, sequence (P28845 whole entry): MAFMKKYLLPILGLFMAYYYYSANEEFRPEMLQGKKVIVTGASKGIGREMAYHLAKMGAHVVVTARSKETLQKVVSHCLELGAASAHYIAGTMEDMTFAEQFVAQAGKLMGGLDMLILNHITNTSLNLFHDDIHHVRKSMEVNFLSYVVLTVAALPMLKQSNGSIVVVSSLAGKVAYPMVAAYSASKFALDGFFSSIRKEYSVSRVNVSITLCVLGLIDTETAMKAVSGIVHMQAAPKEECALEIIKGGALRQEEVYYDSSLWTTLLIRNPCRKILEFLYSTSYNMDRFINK

**Q.** Which results are given for `Cc1cc(F)ccc1O[C@@H]1CN[C@H](C(=O)NC2C3CC4CC(C3)CC2C4)C1` (stereo partly drawn) [Example 356]?
**A.** inhibition at 0.1 µM (human 11b-hsd-1): 100%; Ki (human 11b-hsd-1): 1.4 nM

**Q.** With `O=C(NC1C2CC3CC(C2)CC1C3)[C@@H]1C[C@H](Oc2cccc(C(F)(F)F)c2)CN1` (stereo partly drawn) [Example 357] as the compound, how does the inhibition at 0.1 µM (human 11b-hsd-1) read?
**A.** The inhibition at 0.1 µM was 100%.

**Q.** What about the Ki (human 11b-hsd-1) of the same compound?
**A.** The Ki was 2.1 nM.

**Q.** For `CCOc1cccc(O[C@@H]2CN[C@H](C(=O)NC3C4CC5CC(C4)CC3C5)C2)c1` (stereo partly drawn) [Example 358], which inhibition at 0.1 µM (human 11b-hsd-1) is on record?
**A.** The inhibition at 0.1 µM was 100%.

**Q.** What about the Ki (human 11b-hsd-1) of the same compound?
**A.** The Ki was 4.5 nM.

**Q.** What does the source list for `Cc1ncccc1O[C@@H]1CN[C@H](C(=O)NC2C3CC4CC(C3)CC2C4)C1` (stereo partly drawn) [Example 359]?
**A.** inhibition at 0.1 µM (human 11b-hsd-1): 80.7%; Ki (human 11b-hsd-1): 44 nM

**Q.** With `O=C(NC1C2CC3CC(C2)CC1C3)[C@@H]1C[C@H](Oc2ccccc2Cl)CN1` (stereo partly drawn) [Example 360] as the compound, how does the inhibition at 0.1 µM (human 11b-hsd-1) read?
**A.** Its inhibition at 0.1 µM is 100%.

**Q.** What about the Ki (human 11b-hsd-1) of the same compound?
**A.** The Ki was 1.4 nM.

**Q.** Which inhibition at 0.1 µM (human 11b-hsd-1) does the source give for `CCOc1ccccc1O[C@@H]1CN[C@H](C(=O)NC2C3CC4CC(C3)CC2C4)C1` (stereo partly drawn) [Example 361] here?
**A.** Its inhibition at 0.1 µM is 100%.

**Q.** What about the Ki (human 11b-hsd-1) of the same compound?
**A.** Its Ki is 1.9 nM.

**Q.** With `O=C(NC1C2CC3CC(C2)CC1C3)[C@@H]1C[C@H](Oc2cc(F)c(F)c(F)c2)CN1` (stereo partly drawn) [Example 362] as the compound, how does the inhibition at 0.1 µM (human 11b-hsd-1) read?
**A.** The inhibition at 0.1 µM was 100%.

**Q.** And the Ki (human 11b-hsd-1)?
**A.** Its Ki is 1.1 nM.

**Q.** Which results are given for `O=C(NC1C2CC3CC(C2)CC1C3)[C@@H]1C[C@H](Oc2c(F)cc(F)cc2F)CN1` (stereo partly drawn) [Example 363]?
**A.** inhibition at 0.1 µM (human 11b-hsd-1): 100%; Ki (human 11b-hsd-1): 1 nM

**Q.** With `CC(C)Oc1ccccc1O[C@@H]1CN[C@H](C(=O)NC2C3CC4CC(C3)CC2C4)C1` (stereo partly drawn) [Example 364] as the compound, how does the inhibition at 0.1 µM (human 11b-hsd-1) read?
**A.** The inhibition at 0.1 µM was 100%.

**Q.** What about the Ki (human 11b-hsd-1) of the same compound?
**A.** The Ki was 4.6 nM.

**Q.** Which inhibition at 0.1 µM (human 11b-hsd-1) does the source give for `O=C(NC1C2CC3CC(C2)CC1C3)[C@@H]1C[C@H](Oc2ccc(Cl)c(F)c2)CN1` (stereo partly drawn) [Example 365] here?
**A.** The inhibition at 0.1 µM was 100%.

**Q.** And the Ki (human 11b-hsd-1)?
**A.** Its Ki is 1 nM.

**Q.** Which inhibition at 0.1 µM (human 11b-hsd-1) does the source give for `O=C(NC1C2CC3CC(C2)CC1C3)[C@H]1NCC[C@@H]1CC1CCCCC1` (stereo partly drawn) [Example 366] here?
**A.** The inhibition at 0.1 µM was 94.9%.

**Q.** And the Ki (human 11b-hsd-1)?
**A.** The Ki was 15 nM.

**Q.** For `O=C(NC1C2CC3CC(C2)CC1C3)[C@H]1NCC[C@@H]1c1ccc(Cl)cc1` (stereo partly drawn) [Example 367], which inhibition at 0.1 µM (human 11b-hsd-1) is on record?
**A.** The inhibition at 0.1 µM was 93.5%.

**Q.** And the Ki (human 11b-hsd-1)?
**A.** Its Ki is 7.5 nM.

**Q.** For `O=C(NC1C2CC3CC(C2)CC1C3)[C@H]1NCC[C@@H]1Cc1ccc(F)cc1` (stereo partly drawn) [Example 368], which inhibition at 0.1 µM (human 11b-hsd-1) is on record?
**A.** Its inhibition at 0.1 µM is 96.4%.

**Q.** What about the Ki (human 11b-hsd-1) of the same compound?
**A.** The Ki was 6.8 nM.

**Q.** Which inhibition at 0.1 µM (human 11b-hsd-1) does the source give for `O=C(NC1C2CC3CC(C2)CC1C3)[C@H]1NCC[C@@H]1Cc1ccccc1` (stereo partly drawn) [Example 369] here?
**A.** Its inhibition at 0.1 µM is 100%.

**Q.** What about the Ki (human 11b-hsd-1) of the same compound?
**A.** Its Ki is 6.6 nM.

**Q.** For `O=C(NC1CCCCC1)[C@@H]1C[C@H](Oc2ccc(Cl)cc2)CN1` [Example 370], which inhibition at 0.1 µM (human 11b-hsd-1) is on record?
**A.** Its inhibition at 0.1 µM is 88.7%.

**Q.** And the Ki (human 11b-hsd-1)?
**A.** The Ki was 10 nM.

**Q.** With `O=C(NC1CCCCC1)[C@@H]1C[C@H](Oc2cc(F)ccc2F)CN1` [Example 371] as the compound, how does the inhibition at 0.1 µM (human 11b-hsd-1) read?
**A.** Its inhibition at 0.1 µM is 86.2%.

**Q.** For `O=C(NC1CCCCC1)[C@@H]1C[C@H](Oc2c(F)cc(F)cc2F)CN1` [Example 372], which inhibition at 0.1 µM (human 11b-hsd-1) is on record?
**A.** The inhibition at 0.1 µM was 97.4%.

**Q.** For `O=C(NC1CCCCC1)[C@@H]1C[C@H](Oc2ccc(Cl)c(F)c2)CN1` [Example 373], which inhibition at 0.1 µM (human 11b-hsd-1) is on record?
**A.** The inhibition at 0.1 µM was 91.8%.

**Q.** For `CC1(C)[C@@H](OC(=O)CCC(=O)O)CC[C@]2(C)[C@H]3C(=O)C=C4[C@@H]5C[C@@](C)(C(=O)O)CC[C@]5(C)CC[C@@]4(C)[C@]3(C)CC[C@@H]12` [carbenoxolone], which “negative effect of glucocorticoid on bone nodule formation” value (bone nodule formation) is on record?
**A.** Its value is “blocked”.

**Q.** And the hepatic insulin sensitivity (healthy human volunteers)?
**A.** The hepatic insulin sensitivity was “improved”.

**Q.** And the “reduction of the intraocular pressure” value (normal subjects)?
**A.** The value was 20%.
